Experimental data as given in article PMC10054477, “Design, Synthesis, and Biological Evaluation of Sulfonamide Methoxypyridine Derivatives as Novel PI3K/mTOR Dual Inhibitors” (Pharmaceuticals, 2023).

Assays:
[1] = tested on: MCF-7 cells; experiment: CCK-8 cell viability assay, MCF-7; type: cell-based; conditions: Homo sapiens, MCF7, 72 h, mean (n = 3)
Description: (§1) MCF-7 and HCT-116 cells were purchased from the Meilunbio Biotechnology Co., Ltd. (Dalian, China). Cells were cultured at 37 °C with 5% CO2, using DMEM or RPMI 1640 medium (Meilunbio, Dalian, China) with 10% (v/v) fetal bovine serum (Gibco, San Diego, CA, USA) and 1% (v/v) penicillin and streptomycin (Meilunbio, Dalian, China). CCK-8 assay was used to determine the inhibitory effect in vitro. In short, cells were incubated into 96-well plates at the rate of 5000 cells per well. After 24 h of incubation, 100 μL medium was added, which contained a specific concentration of the test compound. After 72 h, 10 μL CCK-8 regent was added and the plate was incubated at 37 °C, 5% CO2 for 1 h. The optical density of each hole at 450 nm was read by a BioTek TS-800 microplate reader. GraphPad Prism 9.3.1 software was used to calculate the IC50 value.

[2] = tested on: HCT-116 cells; experiment: CCK-8 cell viability assay, HCT-116; type: cell-based; conditions: Homo sapiens, mean (n = 3)
Description: as §1

[3] = molecular target: T1, PI3Kα (Homo sapiens, UniProt P42336); experiment: ADP-Glo kinase assay, PI3Kα enzyme inhibition; type: biochemical; conditions: for inhibition at 0.001 µM: at 1 nM; for IC50: mean (n = 2)
T1 construct: purchased SignalChem P27-122DH
T1 sequence (P42336 whole entry): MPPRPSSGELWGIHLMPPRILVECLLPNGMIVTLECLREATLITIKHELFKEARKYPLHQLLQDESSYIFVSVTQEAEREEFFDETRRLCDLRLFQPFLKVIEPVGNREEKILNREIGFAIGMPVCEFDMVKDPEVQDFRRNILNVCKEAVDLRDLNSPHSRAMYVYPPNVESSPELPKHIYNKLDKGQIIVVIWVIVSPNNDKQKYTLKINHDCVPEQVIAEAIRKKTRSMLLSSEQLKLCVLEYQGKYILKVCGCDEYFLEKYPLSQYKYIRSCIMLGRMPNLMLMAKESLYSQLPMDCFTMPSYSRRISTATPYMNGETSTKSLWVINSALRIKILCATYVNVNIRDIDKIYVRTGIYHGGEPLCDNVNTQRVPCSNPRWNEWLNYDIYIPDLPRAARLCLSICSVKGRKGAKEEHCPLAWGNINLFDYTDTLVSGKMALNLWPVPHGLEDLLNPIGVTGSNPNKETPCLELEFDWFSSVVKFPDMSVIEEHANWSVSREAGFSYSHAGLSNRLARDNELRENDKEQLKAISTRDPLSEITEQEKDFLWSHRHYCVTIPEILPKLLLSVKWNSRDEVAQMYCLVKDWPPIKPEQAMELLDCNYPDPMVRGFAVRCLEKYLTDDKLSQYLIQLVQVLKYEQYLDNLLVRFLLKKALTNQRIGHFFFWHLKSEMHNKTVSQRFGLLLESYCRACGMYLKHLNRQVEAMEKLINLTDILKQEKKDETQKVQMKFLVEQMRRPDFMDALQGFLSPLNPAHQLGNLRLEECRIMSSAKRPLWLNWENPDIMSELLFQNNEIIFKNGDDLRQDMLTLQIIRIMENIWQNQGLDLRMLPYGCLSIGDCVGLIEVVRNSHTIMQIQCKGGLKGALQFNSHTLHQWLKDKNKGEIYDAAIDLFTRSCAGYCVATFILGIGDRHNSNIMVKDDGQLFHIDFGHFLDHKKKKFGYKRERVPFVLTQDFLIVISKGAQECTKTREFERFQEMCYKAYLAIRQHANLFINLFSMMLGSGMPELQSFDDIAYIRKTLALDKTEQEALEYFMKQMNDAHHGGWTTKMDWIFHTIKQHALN
T1 sequence (P27986 whole entry partner): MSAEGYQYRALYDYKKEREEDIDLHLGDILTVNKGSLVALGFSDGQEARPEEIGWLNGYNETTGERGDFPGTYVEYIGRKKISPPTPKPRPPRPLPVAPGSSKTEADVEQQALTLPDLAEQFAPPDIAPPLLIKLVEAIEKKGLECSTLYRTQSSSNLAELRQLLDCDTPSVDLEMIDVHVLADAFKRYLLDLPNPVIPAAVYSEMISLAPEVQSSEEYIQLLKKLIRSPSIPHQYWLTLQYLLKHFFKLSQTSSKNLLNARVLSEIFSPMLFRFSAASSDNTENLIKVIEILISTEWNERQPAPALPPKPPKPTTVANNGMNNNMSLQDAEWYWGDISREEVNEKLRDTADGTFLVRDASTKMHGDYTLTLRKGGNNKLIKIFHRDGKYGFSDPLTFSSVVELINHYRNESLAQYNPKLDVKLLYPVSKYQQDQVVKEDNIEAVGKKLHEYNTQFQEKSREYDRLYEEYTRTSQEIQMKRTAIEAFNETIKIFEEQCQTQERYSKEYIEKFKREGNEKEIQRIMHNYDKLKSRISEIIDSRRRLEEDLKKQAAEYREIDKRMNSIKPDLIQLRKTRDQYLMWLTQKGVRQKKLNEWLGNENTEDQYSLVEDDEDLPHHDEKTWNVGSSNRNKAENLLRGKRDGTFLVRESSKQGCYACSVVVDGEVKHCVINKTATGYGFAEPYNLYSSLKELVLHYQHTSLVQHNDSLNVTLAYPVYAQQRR
Description: The enzymatic inhibitory assays of all target compounds against PI3Kα were performed with the ADP-Glo assay (Promega, Madison, WI, USA, catalog No. V9102/3). Briefly, compounds were continuously diluted to a certain concentration. […] The mixture was added to a 96-well plate and incubated in a dark place at ambient temperature for 40 min. Then, the kinase reaction was stopped by adding of ADP-Glo reagent and the plate was incubated again at ambient temperature for another 40 min. The kinase detection reagent was added and the signal was collected via PerkinElmer Envision plate reader (PE, Boston, MA, USA).

[4] = tested on: HCT-116 cells; experiment: Hoechst 33342/PI staining of survival and apoptosis; type: cell-based; conditions: 24 h
Description: (§2) Hoechst 33342/PI staining was used to detect cell survival and apoptosis, and flow cytometry (FACS Verse, BD, Piscataway, NJ, USA) was used to measure cell cycle and survival. Briefly, HCT-116 cells were seeded in 6-well plates and cultured with 22c at different concentrations for 24 h. As for the Hoechst 33342/PI staining assay, staining buffer with Hoechst 33342/PI was added into each plate and incubated at 4 °C for 30 min. After washing with PBS, the stained cells were observed by fluorescence microscope (IX73, Olympus, Tokyo, Japan). As for detection of cell apoptosis by flow cytometry, cells were stained with Annexin V-FITC/PI. As for cell cycle assay, the cells were fixed with 70% ethanol at 4 °C overnight, and stained with PI/RNase solution for 30 min at 37 °C. All assays were measured by flow cytometry and analyzed by Flowjo 7.6.

[5] = molecular target: T2, mTOR (Homo sapiens, UniProt P42345); experiment: LANCE Ultra assay, mTOR inhibition; type: biochemical; conditions: mean (n = 2)
T2 construct: purchased Millipore 14-770
T2 sequence (P42345 1362-2549 limits assumed): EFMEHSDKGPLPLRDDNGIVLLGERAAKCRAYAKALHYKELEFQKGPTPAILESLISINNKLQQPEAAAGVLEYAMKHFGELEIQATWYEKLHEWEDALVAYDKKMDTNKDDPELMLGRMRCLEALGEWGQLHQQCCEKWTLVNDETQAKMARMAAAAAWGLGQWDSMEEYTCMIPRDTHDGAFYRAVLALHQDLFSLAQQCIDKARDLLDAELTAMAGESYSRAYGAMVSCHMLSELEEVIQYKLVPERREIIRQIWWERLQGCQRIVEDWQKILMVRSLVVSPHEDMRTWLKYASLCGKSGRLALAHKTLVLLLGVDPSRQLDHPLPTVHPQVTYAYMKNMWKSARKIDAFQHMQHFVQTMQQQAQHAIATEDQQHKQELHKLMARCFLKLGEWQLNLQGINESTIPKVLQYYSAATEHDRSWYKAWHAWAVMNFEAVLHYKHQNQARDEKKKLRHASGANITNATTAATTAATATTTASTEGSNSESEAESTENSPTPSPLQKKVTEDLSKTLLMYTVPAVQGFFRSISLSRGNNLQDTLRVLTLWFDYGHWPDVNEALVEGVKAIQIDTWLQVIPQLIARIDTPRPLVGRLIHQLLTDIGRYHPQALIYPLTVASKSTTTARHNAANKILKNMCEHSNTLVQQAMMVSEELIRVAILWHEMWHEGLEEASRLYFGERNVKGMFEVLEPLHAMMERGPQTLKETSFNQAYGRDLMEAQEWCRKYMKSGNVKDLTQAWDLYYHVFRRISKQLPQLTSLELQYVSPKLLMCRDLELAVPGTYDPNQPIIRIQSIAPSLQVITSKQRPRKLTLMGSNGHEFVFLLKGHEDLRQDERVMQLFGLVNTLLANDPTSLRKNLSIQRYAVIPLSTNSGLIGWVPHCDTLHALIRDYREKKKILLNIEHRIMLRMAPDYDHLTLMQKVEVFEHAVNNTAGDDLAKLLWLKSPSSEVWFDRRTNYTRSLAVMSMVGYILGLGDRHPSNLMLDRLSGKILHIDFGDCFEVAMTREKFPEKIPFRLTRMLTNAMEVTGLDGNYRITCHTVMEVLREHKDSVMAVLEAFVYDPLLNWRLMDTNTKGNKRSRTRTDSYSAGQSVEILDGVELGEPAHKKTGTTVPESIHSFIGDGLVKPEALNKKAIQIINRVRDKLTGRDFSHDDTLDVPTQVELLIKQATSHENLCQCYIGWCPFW
Description: The inhibitory activity of 22c on mTOR was determined by LANCE Ultra assay. In short, to a solution of kinase buffer, compound solution, ULight-4E-BP1 (Thr37/46) peptide substrate (PE, Catalog No. TRF0128-M), ATP, and mTOR protein (Millipore, Burlington, MA, USA, Catalog No. 14-770) were added. It was transferred to a 384-well plate and incubated at room temperature for 30 min. The LANCE detection buffer was added, which contained EDTA and Eu-antiphos-4E-BP1 (Thr37/46) antibody (PE, catalog number TRF0216-M). The plate was balanced at ambient temperature for 1 h, and the signal was detected via PerkinElmer Envision plate reader.

[6] = tested on: phosphorylation of AKT in HCT-116 cells; experiment: Western blot of AKT phosphorylation; type: cell-based; conditions: 24 h
Description: HCT-116 cells were cultured in 100 mm culture dish to 70~80%, and treated with compound 22c at a specified concentration for 24 h. Then, the cells were scraped off with cell scraper, collected into a precooled 1.5 mL centrifuge tube, and lysed with RIPA buffer (Cwbio, Taizhou, China) containing PMSF (1 mM), NaF (1 mM), Na3VO4 (1 mM). The cells were lysed at 4 °C for 30 min, and the concentration of protein was determined by the BCA assay kit (Meilunbio, Dalian, China). Then the protein samples (40 μg) were used to conduct SDS-PAGE electrophoresis (Electrophoresis equipment: BIO-RAD, Hercules, CA, USA; Prefabricated-gel: ACE, Shanghai, China). After electrophoresis, the protein was transferred to PVDF membranes ([…], Millipore, USA). It was sealed with 5% non-fat milk for 1.5 h, washed with TBST for 4 times, and incubated with primary antibody at 4 °C overnight. Then, membranes were recovered to room temperature, washed with TBST for 4 times and incubated with secondary antibody (Huabio, Hangzhou, China) at room temperature for 1.5 h. After incubating, the membranes were washed with TBST for 4 times, visualized with an Amersham Imager 680 (GE, Windsor, CT, USA) through the enhanced ECL detection kit (Meilunbio, Dalian, China). […]

[7] = tested on: HCT-116 cells; experiment: Flow cytometry analysis of apoptosis via Annexin V-FITC/PI staining; type: cell-based; conditions: 24 h
Description: as §2

[8] = tested on: HCT-116 cells; experiment: Flow cytometry analysis of cell cycle via PI staining; type: cell-based; conditions: 24 h, dose-dependent
Description: as §2

[9] = tested on: PI3K; set-up: method as in PMID 21388141; conditions: read-out: enzyme inhibition; cited from earlier work
[10] = molecular target: PI3Kγ; set-up: method as in PMID 30582807; conditions: cited from earlier work

CCOC(=O)c1cnc(-c2ccnc3ccc(-c4cnc(OC)c(NS(=O)(=O)c5ccc(F)cc5F)c4)cc23)o1 [22a, Ethyl-2-(6-(5-((2,4-difluorophenyl)sulfonamido)-6-methoxypyridin-3-yl)quinolin-4-yl)oxazole-5-carboxylate]
IC50 ([1]; Table 3): > 1 µM | IC50 ([2]; Table 3, 72 h): > 1 µM | inhibition at 0.001 µM ([3]; Table 3): 20%

CNC(=O)c1cnc(-c2ccnc3ccc(-c4cnc(OC)c(NS(=O)(=O)c5ccc(F)cc5F)c4)cc23)o1 [22b, 2-(6-(5-((2,4-difluorophenyl)sulfonamido)-6-methoxypyridin-3-yl)quinolin-4-yl)-N-methyloxazole-5-carboxamide]
IC50 ([1]; Table 3): 0.39 ± 0.08 µM | IC50 ([2]; Table 3, 72 h): 0.15 ± 0.04 µM | inhibition at 0.001 µM ([3]; Table 3): 74%

COc1ncc(-c2ccc3nccc(-c4ncc(C(=O)NC(C)C)o4)c3c2)cc1NS(=O)(=O)c1ccc(F)cc1F [22c, 2-(6-(5-((2,4-difluorophenyl)sulfonamido)-6-methoxypyridin-3-yl)quinolin-4-yl)-N-isopropyloxazole-5-carboxamide]
apoptosis and necrosis (Hoechst33342/PI staining) [4]: could significantly affect apoptosis and necrosis of HCT-116 cells | IC50 ([1]; Table 3): 0.13 ± 0.03 µM | IC50 ([2]; Table 3, 72 h): 0.02 ± 0.01 µM | IC50 [5]: 23 nM | phosphorylation of AKT (Western blot) [6]: could block the phosphorylation process of AKT at low concentrations | inhibition at 0.001 µM ([3]; Table 3): 82% | IC50 [3]: 0.22 nM | Q1 of Annexin V-FITC/PI plot ([7]; 0.25 μM): 1.95 | Q2 of Annexin V-FITC/PI plot ([7]; 0.25 μM): 14.1 | Q3 of Annexin V-FITC/PI plot ([7]; 0.25 μM): 0.080 | Q4 of Annexin V-FITC/PI plot ([7]; 0.25 μM): 83.9 | Q1 of Annexin V-FITC/PI plot ([7]; 1 μM): 3.13 | Q2 of Annexin V-FITC/PI plot ([7]; 1 μM): 38.0 | Q3 of Annexin V-FITC/PI plot ([7]; 1 μM): 0.14 | Q4 of Annexin V-FITC/PI plot ([7]; 1 μM): 58.7 | Q1 of Annexin V-FITC/PI plot ([7]; 4 μM): 2.69 | Q2 of Annexin V-FITC/PI plot ([7]; 4 μM): 58.3 | Q3 of Annexin V-FITC/PI plot ([7]; 4 μM): 0.17 | Q4 of Annexin V-FITC/PI plot ([7]; 4 μM): 38.9 | apoptosis (flow cytometry), in words ([7]; dose-dependent): induce apoptosis | cell cycle arrest [8]: inhibited the cell cycle in G0/G1 phase

COc1ncc(-c2ccc3nccc(-c4ncc(C(=O)NC5CC5)o4)c3c2)cc1NS(=O)(=O)c1ccc(F)cc1F [22d, N-cyclopropyl-2-(6-(5-((2,4-difluorophenyl)sulfonamido)-6-methoxypyridin-3-yl)quinolin-4-yl)oxazole-5-carboxamide]
IC50 ([1]; Table 3): 0.46 ± 0.11 µM | IC50 ([2]; Table 3, 72 h): 0.1 ± 0.06 µM | inhibition at 0.001 µM ([3]; Table 3): 82% | IC50 [3]: 0.22 nM

COCCNC(=O)c1cnc(-c2ccnc3ccc(-c4cnc(OC)c(NS(=O)(=O)c5ccc(F)cc5F)c4)cc23)o1 [22e, 2-(6-(5-((2,4-difluorophenyl)sulfonamido)-6-methoxypyridin-3-yl)quinolin-4-yl)-N-(2-methoxyethyl)oxazole-5-carboxamide]
IC50 ([1]; Table 3): 0.2 ± 0.09 µM | IC50 ([2]; Table 3, 72 h): 0.13 ± 0.05 µM | inhibition at 0.001 µM ([3]; Table 3): 69%

COCCCNC(=O)c1cnc(-c2ccnc3ccc(-c4cnc(OC)c(NS(=O)(=O)c5ccc(F)cc5F)c4)cc23)o1 [22f, 2-(6-(5-((2,4-difluorophenyl)sulfonamido)-6-methoxypyridin-3-yl)quinolin-4-yl)-N-(3-methoxypropyl)oxazole-5-carboxamide]
IC50 ([1]; Table 3): 0.29 ± 0.1 µM | IC50 ([2]; Table 3, 72 h): 0.06 ± 0.02 µM | inhibition at 0.001 µM ([3]; Table 3): 78% | IC50 [3]: 0.38 nM

CCCCNC(=O)c1cnc(-c2ccnc3ccc(-c4cnc(OC)c(NS(=O)(=O)c5ccc(F)cc5F)c4)cc23)o1 [22g, N-butyl-2-(6-(5-((2,4-difluorophenyl)sulfonamido)-6-methoxypyridin-3-yl)quinolin-4-yl)oxazole-5-carboxamide]
IC50 ([1]; Table 3): 0.45 ± 0.09 µM | IC50 ([2]; Table 3, 72 h): 0.32 ± 0.09 µM | inhibition at 0.001 µM ([3]; Table 3): 55%

COc1ncc(-c2ccc3nccc(-c4ncc(C(=O)NCC5CC5)o4)c3c2)cc1NS(=O)(=O)c1ccc(F)cc1F [22h, N-(cyclopropylmethyl)-2-(6-(5-((2,4-difluorophenyl)sulfonamido)-6-methoxypyridin-3-yl)quinolin-4-yl)oxazole-5-carboxamide]
IC50 ([1]; Table 3): 0.35 ± 0.11 µM | IC50 ([2]; Table 3, 72 h): 0.06 ± 0.01 µM | inhibition at 0.001 µM ([3]; Table 3): 78% | IC50 [3]: 0.37 nM

COc1ncc(-c2ccc3nccc(-c4ncc(C(=O)NCC5CCCCC5)o4)c3c2)cc1NS(=O)(=O)c1ccc(F)cc1F [22i, N-(cyclohexylmethyl)-2-(6-(5-((2,4-difluorophenyl)sulfonamido)-6-methoxypyridin-3-yl)quinolin-4-yl)oxazole-5-carboxamide]
IC50 ([1]; Table 3): 1 ± 0.3 µM | IC50 ([2]; Table 3, 72 h): 0.77 ± 0.19 µM | inhibition at 0.001 µM ([3]; Table 3): 33%

COc1ncc(-c2ccc3nccc(-c4ncc(C(=O)NC5CCCCC5)o4)c3c2)cc1NS(=O)(=O)c1ccc(F)cc1F [22j, N-cyclohexyl-2-(6-(5-((2,4-difluorophenyl)sulfonamido)-6-methoxypyridin-3-yl)quinolin-4-yl)oxazole-5-carboxamide]
IC50 ([1]; Table 3): > 1 µM | IC50 ([2]; Table 3, 72 h): > 1 µM | inhibition at 0.001 µM ([3]; Table 3): 18%

COc1ccc(CCNC(=O)c2cnc(-c3ccnc4ccc(-c5cnc(OC)c(NS(=O)(=O)c6ccc(F)cc6F)c5)cc34)o2)cc1 [22k, 2-(6-(5-((2,4-difluorophenyl)sulfonamido)-6-methoxypyridin-3-yl)quinolin-4-yl)-N-(4-methoxyphenethyl)oxazole-5-carboxamide]
IC50 ([1]; Table 3): > 1 µM | IC50 ([2]; Table 3, 72 h): > 1 µM | inhibition at 0.001 µM ([3]; Table 3): 22%

COc1ncc(-c2ccc3nccc(-c4ncc(C(=O)NCCc5ccc(Cl)cc5)o4)c3c2)cc1NS(=O)(=O)c1ccc(F)cc1F [22l, N-(4-chlorophenethyl)-2-(6-(5-((2,4-difluorophenyl)sulfonamido)-6-methoxypyridin-3-yl)quinolin-4-yl)oxazole-5-carboxamide]
IC50 ([1]; Table 3): > 1 µM | IC50 ([2]; Table 3, 72 h): > 1 µM | inhibition at 0.001 µM ([3]; Table 3): 15%

CCOC(=O)c1cnc2ccc(-c3cncc(NS(=O)(=O)c4ccccc4)c3)cn12 [HS-173, reference compound]
IC50 ([1]; Table 1): 1.76 ± 0.44 µM | IC50 ([2]; Table 1, 72 h): 0.19 ± 0.05 µM | IC50 [5]: 110 nM | IC50 [9]: […]

COc1ncc(-c2ccc3nccc(-c4ccnnc4)c3c2)cc1NS(=O)(=O)c1ccc(F)cc1F [Omipalisib, reference compound]
IC50 ([1]; Table 1): > 4 µM | IC50 ([2]; Table 1, 72 h): 0.02 ± 0.01 µM | inhibition at 0.001 µM ([3]; Table 1): 89% | Ki [10]: […]
